Structures can show the parent of a compound that is named as a salt.
Experiments:
[1] = target: human FLAP (Homo sapiens (Human), UniProt P20292); assay: FLAP binding assay (HTRF); settings: human FLAP-containing membranes, HTRF format; average of two assay plates, duplicates; read-out: FLAP Binding wild type HTRF Ki
How it was run: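 Averaged over two plates (duplicate wells per plate); output given as HTRF ratio.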

[2] = tested on: leukotriene pathway in human whole blood (LTB4 levels); assay: Human whole blood assay (LTB4); type: cell-based; settings: human whole blood diluted 1:1 in RPMI, stimulated with calcium ionophore A23187; single replicate
How it was run: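 Single-replicate data from at least one healthy donor: compound pre-incubated 15 min at 37° Celsius in 1:1 RPMI-diluted heparinised blood, followed by 30 min calcium ionophore A23187 (7 μg/mL) challenge at 37° Celsius. LTB4 in plasma quantified by kit; IC50 via 4-parameter equation.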

human FLAP, sequence (P20292 whole entry): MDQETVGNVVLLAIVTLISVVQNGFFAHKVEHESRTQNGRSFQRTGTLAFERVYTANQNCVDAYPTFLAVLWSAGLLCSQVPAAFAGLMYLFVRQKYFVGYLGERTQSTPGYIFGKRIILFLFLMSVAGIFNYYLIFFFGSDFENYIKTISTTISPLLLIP

Row | SMILES | Ki [1] [nM] | IC50 [2] [nM]
1 | NCCNc1nccc(Oc2c(C3CCC3)ccc(-c3cnc(N)cn3)c2F)n1 [Example 150, N-{4-[3-(5-Aminopyrazin-2-yl)-6-cyclobutyl-2-fluorophenoxy]pyrimidin-2-yl}ethane-1,2-diamine] | 176 | 3590
2 | COC(=O)c1ccnc(Oc2c(C3CCC3)ccc(-c3cnc(N)cn3)c2F)n1 [Example 151, methyl 2-[3-(5-aminopyrazin-2-yl)-6-cyclobutyl-2-fluorophenoxy]pyrimidine-4-carboxylate] | 8.9 | 75.4
3 | Nc1cnc(-c2ccc(C3CCC3)c(Oc3nccc(C(=O)O)n3)c2F)cn1 [Example 152, 2-[3-(5-Aminopyrazin-2-yl)-6-cyclobutyl-2-fluorophenoxy]pyrimidine-4-carboxylic acid] | 62.5 | > 10000
4 | Nc1cnc(-c2ccc(C3CCC3)c(Oc3ccc(C(=O)O)cn3)c2F)cn1 [Example 154, 6-[3-(5-Aminopyrazin-2-yl)-6-cyclobutyl-2-fluorophenoxy]pyridine-3-carboxylic acid] | 12.5 | > 10000
5 | NC(=O)c1ccnc(Oc2c(C3CCC3)ccc(-c3cnc(N)cn3)c2F)n1 [Example 157, 2-[3-(5-Aminopyrazin-2-yl)-6-cyclobutyl-2-fluorophenoxy]pyrimidine-4-carboxamide] | 20.6 | 109
6 | Nc1cnc(Oc2c(C3CCC3)ccc(-c3cnc(N)cn3)c2F)nc1 [Example 158, 2-[3-(5-Aminopyrazin-2-yl)-6-cyclobutyl-2-fluorophenoxy]pyrimidin-5-amine] | 7.8 | 35.9
7 | COc1c(C2CCC2)ccc(-c2cnc(N)nc2)c1F [Example 159, 5-(4-cyclobutyl-2-fluoro-3-methoxyphenyl)pyrimidin-2-amine] | 55.7 | 3310
8 | Nc1ncc(-c2ccc(C3CCC3)c(Oc3ncccn3)c2F)cn1 [Example 160, 5-[4-Cyclobutyl-2-fluoro-3-(pyrimidin-2-yloxy)phenyl]pyrimidin-2-amine] | 94.7 | 494
9 | Nc1ccnc(Oc2c(C3CCC3)ccc(-c3cnc(N)nc3)c2F)n1 [Example 161, 5-{3-[(4-Aminopyrimidin-2-yl)oxy]-4-cyclobutyl-2-fluorophenyl}pyrimidin-2-amine] | 22.2 | 88
10 | Cc1ccnc(Oc2c(C3CCC3)ccc(-c3cnc(N)nc3)c2F)n1 [Example 163, 5-{4-Cyclobutyl-2-fluoro-3-[(4-methylpyrimidin-2-yl)oxy]phenyl}pyrimidin-2-amine] | 70.4 | 494
11 | Nc1cc(Oc2c(C3CCC3)ccc(-c3cnc(N)nc3)c2F)ncn1 [Example 164, 5-{3-[(6-Aminopyrimidin-4-yl)oxy]-4-cyclobutyl-2-fluorophenyl}pyrimidin-2-amine] | 36.8 | 118
12 | Nc1ncc(-c2ccc(C3CCC3)c(Oc3ccnc(N)n3)c2F)cn1 [Example 166, 4-[3-(2-Aminopyrimidin-5-yl)-6-cyclobutyl-2-fluorophenoxy]pyrimidin-2-amine] | 11.7 | 129
13 | Cc1cc(C)nc(Oc2c(C3CCC3)ccc(-c3cnc(N)nc3)c2F)n1 [Example 167, 5-{4-Cyclobutyl-3-[(4,6-dimethylpyrimidin-2-yl)oxy]-2-fluorophenyl}pyrimidin-2-amine] | 14.7 | 45.6
14 | NC(=O)c1ccnc(Oc2c(C3CCC3)ccc(-c3cnc(N)nc3)c2F)n1 [Example 169, 2-[3-(2-Aminopyrimidin-5-yl)-6-cyclobutyl-2-fluorophenoxy]pyrimidine-4-carboxamide] | 205 | 268
15 | COc1cc(Oc2c(C3CCC3)ccc(-c3cnc(N)nc3)c2F)ncn1 [Example 170, 5-(4-cyclobutyl-2-fluoro-3-((6-methoxypyrimidin-4-yl)oxy)phenyl)pyrimidin-2-amine] | 90.3 | 1430
16 | Nc1ncc(-c2ccc(C3CCC3)c(Oc3cc(O)ncn3)c2F)cn1 [Example 171, 6-[3-(2-Aminopyrimidin-5-yl)-6-cyclobutyl-2-fluorophenoxy]pyrimidin-4-ol trifluoroacetate] | 39.8 | 252
17 | COc1c(C2CCC2)ccc(-c2ncc(N)nc2C#N)c1F [Example 172, 6-amino-3-(4-cyclobutyl-2-fluoro-3-methoxyphenyl)pyrazine-2-carbonitrile] | 394 | 1660
18 | COc1c(C2CCC2)ccc(-c2cnc3[nH]ccc3n2)c1F [Example 175, 2-(4-cyclobutyl-2-fluoro-3-methoxyphenyl)-5H-pyrrolo[2,3-b]pyrazine] | 100 | 1280
19 | Nc1ccc(-c2ccc(C3CCC3)c(OCc3ccc(C(=O)O)cc3)c2F)cn1 [Example 181, 4-((3-(6-Aminopyridin-3-yl)-6-cyclobutyl-2-fluorophenoxy)methyl)benzoic acid] | 41 | 10000
20 | COc1c(C2CCC2)ccc(-c2cnc3[nH]cnc3c2)c1F [Example 183, 6-(4-Cyclobutyl-2-fluoro-3-methoxyphenyl)-3H-imidazo[4,5-b]pyridine] | 328 | > 10000

The next molecules have a lower Ki [1] than those just listed; values first:

Row | Ki [1] [nM] | IC50 [2] [nM] | SMILES
21 | 5.5 | 70.3 | Nc1cnc(-c2ccc(C3CCC3)c(Oc3cc(N4CCC4)ncn3)c2F)cn1 [Example 138, 5-{3-[(6-Azetidin-1-ylpyrimidin-4-yl)oxy]-4-cyclobutyl-2-fluorophenyl}pyrazin-2-amine trifluoroacetate salt]
22 | 3.9 | 48.5 | CN(C)c1cc(Oc2c(C3CCC3)ccc(-c3cnc(N)cn3)c2F)nc(C(F)(F)F)n1 [Example 139, 6-[3-(5-Aminopyrazin-2-yl)-6-cyclobutyl-2-fluorophenoxy]-N,N-dimethyl-2-(trifluoromethyl)pyrimidin-4-amine]
23 | 1.3 | 11.7 | Cc1nc(N)cc(Oc2c(C3CCC3)ccc(-c3cnc(N)cn3)c2F)n1 [Example 140, 6-[3-(5-Aminopyrazin-2-yl)-6-cyclobutyl-2-fluorophenoxy]-2-methylpyrimidin-4-amine trifluoroacetate salt]
24 | 5 | 58.6 | Nc1cnc(-c2ccc(C3CCC3)c(Oc3cc(C4CC4)ncn3)c2F)cn1 [Example 141, 5-{4-Cyclobutyl-3-[(6-cyclopropylpyrimidin-4-yl)oxy]-2-fluorophenyl}pyrazin-2-amine]
25 | 1.7 | 18.5 | COCc1cc(Oc2c(C3CCC3)ccc(-c3cnc(N)cn3)c2F)nc(N)n1 [Example 142, 4-[3-(5-Aminopyrazin-2-yl)-6-cyclobutyl-2-fluorophenoxy]-6-(methoxymethyl)pyrimidin-2-amine]
26 | 2.9 | 37.7 | Nc1cnc(-c2ccc(C3CCC3)c(Oc3cc(Cl)nc(N)n3)c2F)cn1 [Example 143, 4-[3-(5-Aminopyrazin-2-yl)-6-cyclobutyl-2-fluorophenoxy]-6-chloropyrimidin-2-amine]
27 | 1.1 | 22.3 | Nc1cnc(-c2ccc(C3CCC3)c(Oc3ccnc(-c4ccccc4)n3)c2F)cn1 [Example 144, 5-{4-Cyclobutyl-2-fluoro-3-[(2-phenylpyrimidin-4-yl)oxy]phenyl}pyrazin-2-amine]
28 | 5.4 | 177 | Nc1cnc(-c2ccc(C3CCC3)c(Oc3cc(-c4ccccc4)ncn3)c2F)cn1 [Example 145, 5-{4-Cyclobutyl-2-fluoro-3-[(6-phenylpyrimidin-4-yl)oxy]phenyl}pyrazin-2-amine]
29 | 0.4 | 4.5 | Nc1cnc(-c2ccc(C3CCC3)c(Oc3cc(N)nc(Cc4ccccc4)n3)c2F)cn1 [Example 146, 6-[3-(5-Aminopyrazin-2-yl)-6-cyclobutyl-2-fluorophenoxy]-2-benzylpyrimidin-4-amine]
30 | 6.4 | 185 | CC(C)c1cc(Oc2c(C3CCC3)ccc(-c3cnc(N)cn3)c2F)ncn1 [Example 147, 5-(4-Cyclobutyl-2-fluoro-3-{[6-(1-methylethyl)pyrimidin-4-yl]oxy}phenyl)pyrazin-2-amine]
31 | 1.3 | 112 | CC(C)(C)OC(=O)NCCNc1ccnc(Oc2c(C3CCC3)ccc(-c3cnc(N)cn3)c2F)n1 [Example 149, tert-Butyl [2-({2-[3-(5-aminopyrazin-2-yl)-6-cyclobutyl-2-fluorophenoxy]pyrimidin-4-yl}amino)ethyl]carbamate]
32 | 2.3 | 424 | Nc1cnc(-c2ccc(C3CCC3)c(Oc3ccc(C(=O)O)cc3)c2F)cn1 [Example 153, 4-[3-(5-Aminopyrazin-2-yl)-6-cyclobutyl-2-fluorophenoxy]benzoic acid]
33 | 7.2 | 124 | COCc1cc(Oc2c(C3CCC3)ccc(-c3cnc(N)nc3)c2F)nc(N)n1 [Example 162, 4-[3-(2-Aminopyrimidin-5-yl)-6-cyclobutyl-2-fluorophenoxy]-6-(methoxymethyl)pyrimidin-2-amine]
34 | 5.6 | 304 | CC(C)c1ccnc(Oc2c(C3CCC3)ccc(-c3cnc(N)nc3)c2F)n1 [Example 165, 5-(4-Cyclobutyl-2-fluoro-3-{[4-(1-methylethyl)pyrimidin-2-yl]oxy}phenyl)pyrimidin-2-amine]
35 | 2.8 | 36.1 | CC(C)c1cc(Oc2c(C3CCC3)ccc(-c3cnc(N)nc3)c2F)nc(N)n1 [Example 168, 4-(3-(2-aminopyrimidin-5-yl)-6-cyclobutyl-2-fluorophenoxy)-6-isopropylpyrimidin-2-amine]
36 | 5.4 | 1210 | N#Cc1nc(N)cnc1-c1ccc(C2CCC2)c(OCc2cccc(C(=O)O)c2)c1F [Example 174, 3-{[3-(5-Amino-3-cyanopyrazin-2-yl)-6-cyclobutyl-2-fluorophenoxy]methyl}benzoic acid]
